Assay results: ChEMBL document CHEMBL1201862, “PubChem BioAssay data set” (2004)
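How tested: cells in 96-well plates exposed to compound for 48 hours at five concentrations. The concentration for 50% growth inhibition is given as GI50.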 Activity calls are given as the source filed them. No stated cut-off is given here; in the data, active = GI50 up to about 1.1 µM and inactive = higher.

How the values were obtained:
Experiment in all cases: DTP human tumour cell line panel, 48 h
786-0 = system: 786-0
A498 = system: A498
ACHN = system: ACHN
DU-145 = system: DU-145
IGROV-1 = system: IGROV-1
K562 = system: K562
MDA-MB-231 = system: MDA-MB-231
MOLT-4 = system: MOLT-4
NCI-H23 = system: NCI-H23
NCI-H460 = system: NCI-H460
OVCAR-4 = system: OVCAR-4
PC-3 = system: PC-3
SF-295 = system: SF-295
SF-539 = system: SF-539
SK-MEL-2 = system: SK-MEL-2
SW-620 = system: SW-620
T47D = system: T47D
TK-10 = system: TK-10
UACC-257 = system: UACC-257
UO-31 = system: UO-31

Row | SMILES | GI50 (786-0) | GI50 (A498) | GI50 (ACHN) | GI50 (DU-145) | GI50 (IGROV-1) | GI50 (K562) | GI50 (MDA-MB-231) | GI50 (MOLT-4) | GI50 (NCI-H23) | GI50 (NCI-H460) | GI50 (OVCAR-4) | GI50 (PC-3) | GI50 (SF-295) | GI50 (SF-539) | GI50 (SK-MEL-2) | GI50 (SW-620) | GI50 (T47D) | GI50 (TK-10) | GI50 (UACC-257) | GI50 (UO-31)
1 | COc1ccc(C(C)NNC(=O)c2cc[n+]([BH2-]C#N)cc2)cc1F (stereo not given) | > 100 µM (inactive) | > 100 µM (inactive) | > 100 µM (inactive) | > 100 µM (inactive) | > 100 µM (inactive) | > 100 µM (inactive) | > 100 µM (inactive) | > 100 µM (inactive) | 96.2 µM (inactive) | > 100 µM (inactive) | > 100 µM (inactive) | > 100 µM (inactive) | > 100 µM (inactive) | > 100 µM (inactive) | > 100 µM (inactive) | > 100 µM (inactive) | > 100 µM (inactive) | > 100 µM (inactive) | > 100 µM (inactive) | > 100 µM (inactive)
2 | c1ccc(/N=c2/[nH]c3ccccc3s/c2=N/c2ccccc2)cc1 | > 100 µM (inactive) | > 100 µM (inactive) | > 100 µM (inactive) | > 100 µM (inactive) | > 100 µM (inactive) | > 100 µM (inactive) | > 100 µM (inactive) | > 100 µM (inactive) | > 100 µM (inactive) | 28.1 µM (inactive) | > 100 µM (inactive) | > 100 µM (inactive) | > 100 µM (inactive) | > 100 µM (inactive) | 77.1 µM (inactive) | > 100 µM (inactive) | 93.8 µM (inactive) | > 100 µM (inactive) | > 100 µM (inactive) | > 100 µM (inactive)
3 | O=C1Nc2cc([N+](=O)[O-])ccc2C(=O)N2CCC[C@@H]12 | > 100 µM (inactive) | > 100 µM (inactive) | > 100 µM (inactive) | > 100 µM (inactive) | > 100 µM (inactive) | > 100 µM (inactive) | > 100 µM (inactive) | > 100 µM (inactive) | > 100 µM (inactive) | > 100 µM (inactive) | > 100 µM (inactive) | > 100 µM (inactive) | > 100 µM (inactive) | > 100 µM (inactive) | > 100 µM (inactive) | > 100 µM (inactive) | > 100 µM (inactive) | > 100 µM (inactive) | > 100 µM (inactive) | > 100 µM (inactive)
4 | CCOP(=O)(OCC)c1c(C(=O)OC)cc(=O)[nH]c1-c1ccc(C)cc1 | 20.6 µM (inactive) | 22 µM (inactive) | 3.17 µM (inactive) | 12.9 µM (inactive) | 6.43 µM (inactive) | 10.4 µM (inactive) | 25.1 µM (inactive) | 4.57 µM (inactive) | 16.9 µM (inactive) | 19.1 µM (inactive) | 8.2 µM (inactive) | 16.7 µM (inactive) | 19.8 µM (inactive) | 7.87 µM (inactive) | 15.7 µM (inactive) | 5.75 µM (inactive) | 2.58 µM (inactive) | 14.4 µM (inactive) | 15.6 µM (inactive) | 4.05 µM (inactive)
5 | CC(C)CCCC(C)[C@H]1CC[C@H]2NCCCC[C@]12C (stereo not given in full) | 3.78 µM (inactive) | 9.84 µM (inactive) | 2.07 µM (inactive) | 5.56 µM (inactive) | 6.19 µM (inactive) | 2.01 µM (inactive) | 2.92 µM (inactive) | 2.28 µM (inactive) | 8.69 µM (inactive) | 2.02 µM (inactive) | 6.58 µM (inactive) | 3.07 µM (inactive) | 2.33 µM (inactive) | 5.92 µM (inactive) | 2.88 µM (inactive) | 2.61 µM (inactive) | 2.77 µM (inactive) | 4.28 µM (inactive) | 3.83 µM (inactive) | 7.36 µM (inactive)
6 | C1CCN2CC34CC(CC5CCCN(C6CCCC3N6)C54)C2C1 (stereo not given) | 84.7 µM (inactive) | > 100 µM (inactive) | > 100 µM (inactive) | > 100 µM (inactive) | > 100 µM (inactive) | > 100 µM (inactive) | > 100 µM (inactive) | > 100 µM (inactive) | > 100 µM (inactive) | > 100 µM (inactive) | > 100 µM (inactive) | > 100 µM (inactive) | > 100 µM (inactive) | > 100 µM (inactive) | > 100 µM (inactive) | > 100 µM (inactive) | > 100 µM (inactive) | > 100 µM (inactive) | > 100 µM (inactive) | –
7 | Cc1c(C#N)c2nnn(-c3ccccc3)c(=O)n2c1-c1ccccc1 | 1.67 µM (inactive) | 2.1 µM (inactive) | 8.97 µM (inactive) | 1.73 µM (inactive) | 1.48 µM (inactive) | 0.236 µM (active) | 12.3 µM (inactive) | 1.58 µM (inactive) | 5.43 µM (inactive) | 1.92 µM (inactive) | > 41.5 µM (inactive) | 1.43 µM (inactive) | 0.752 µM (active) | 1.17 µM (inactive) | 4.53 µM (inactive) | – | 4.18 µM (inactive) | > 59.6 µM (inactive) | 25.4 µM (inactive) | 5.75 µM (inactive)
8 | CN(C)C(=S)N/N=C\C=N/NC(=S)N(C)C | 0.209 µM (active) | 0.643 µM (active) | 0.238 µM (active) | 0.155 µM (active) | 0.47 µM (active) | 23.9 µM (inactive) | > 100 µM (inactive) | – | 1.63 µM (inactive) | 0.0231 µM (active) | 0.148 µM (active) | 0.182 µM (active) | 0.158 µM (active) | 6.97 µM (inactive) | 0.361 µM (active) | 0.0569 µM (active) | 0.384 µM (active) | 2.53 µM (inactive) | 2.64 µM (inactive) | 0.237 µM (active)
9 | N=c1c2c(=S)n(-c3ccccc3)c(=S)n(-c3ccccc3)c2nc(SCCN2CCOCC2)n1-c1ccccc1 | 1.76 µM (inactive) | 3.52 µM (inactive) | 1.87 µM (inactive) | 1.83 µM (inactive) | 1.76 µM (inactive) | 1.47 µM (inactive) | 2.12 µM (inactive) | 1.46 µM (inactive) | 2.67 µM (inactive) | 2.49 µM (inactive) | 1.76 µM (inactive) | 1.85 µM (inactive) | 7.19 µM (inactive) | 3.83 µM (inactive) | 2.86 µM (inactive) | 1.91 µM (inactive) | 2.69 µM (inactive) | 1.71 µM (inactive) | 2.11 µM (inactive) | –
10 | O=[N+]([O-])C(/C(Cl)=C(/Cl)N1CCOCC1)=C1\Nc2ccccc2O1 | > 100 µM (inactive) | > 100 µM (inactive) | > 100 µM (inactive) | 70.3 µM (inactive) | – | > 100 µM (inactive) | > 100 µM (inactive) | > 100 µM (inactive) | > 100 µM (inactive) | 12.7 µM (inactive) | > 100 µM (inactive) | > 100 µM (inactive) | > 100 µM (inactive) | > 100 µM (inactive) | > 100 µM (inactive) | > 100 µM (inactive) | > 100 µM (inactive) | – | 15 µM (inactive) | > 100 µM (inactive)
11 | CCN(CC)Cc1ccccc1CC(=O)N1c2ccccc2C(=O)Nc2cccnc21 | 62.2 µM (inactive) | > 100 µM (inactive) | > 100 µM (inactive) | > 100 µM (inactive) | > 100 µM (inactive) | 79.6 µM (inactive) | > 100 µM (inactive) | 46.7 µM (inactive) | > 100 µM (inactive) | > 100 µM (inactive) | > 100 µM (inactive) | > 100 µM (inactive) | > 100 µM (inactive) | > 100 µM (inactive) | > 100 µM (inactive) | > 100 µM (inactive) | > 100 µM (inactive) | > 100 µM (inactive) | > 100 µM (inactive) | –
12 | COc1cc2c(c(O)c1OC)C(=O)C1CCC(=O)N1C2c1cccc2ccccc12 (stereo not given) | > 100 µM (inactive) | > 100 µM (inactive) | 28.9 µM (inactive) | > 100 µM (inactive) | 36.1 µM (inactive) | 18.9 µM (inactive) | 23.8 µM (inactive) | 21.4 µM (inactive) | 89.7 µM (inactive) | 32.3 µM (inactive) | 47.4 µM (inactive) | 25.2 µM (inactive) | 43.2 µM (inactive) | 41.5 µM (inactive) | 50.7 µM (inactive) | 39.7 µM (inactive) | 36.6 µM (inactive) | – | 30.1 µM (inactive) | 31.3 µM (inactive)
13 | CCC(C=O)P1(=O)OC(C)(C)CN1C(C)(C)C (stereo not given) | > 100 µM (inactive) | 81.8 µM (inactive) | > 100 µM (inactive) | > 100 µM (inactive) | > 100 µM (inactive) | 77.8 µM (inactive) | > 100 µM (inactive) | – | > 100 µM (inactive) | > 100 µM (inactive) | > 100 µM (inactive) | 84.3 µM (inactive) | 32.5 µM (inactive) | > 100 µM (inactive) | 34.9 µM (inactive) | > 100 µM (inactive) | 31.6 µM (inactive) | 93.3 µM (inactive) | > 100 µM (inactive) | > 100 µM (inactive)
14 | CCN(CC)CCO/N=C1/C=C2CCC3C(CC[C@@]4(C)C3CC[C@]4(C)O)[C@@]2(C)CC1 (stereo not given in full) | 3.69 µM (inactive) | 0.195 µM (active) | 5.87 µM (inactive) | 6.37 µM (inactive) | 4.8 µM (inactive) | 4.48 µM (inactive) | 14.1 µM (inactive) | 1.91 µM (inactive) | 6.75 µM (inactive) | 3.41 µM (inactive) | 17.5 µM (inactive) | 4.6 µM (inactive) | 2.33 µM (inactive) | 3.18 µM (inactive) | 11.2 µM (inactive) | – | 7.59 µM (inactive) | 15.2 µM (inactive) | 4.9 µM (inactive) | 5.41 µM (inactive)
